Measured values from article PMC9499467, “Phenanthroindolizidine Alkaloids Isolated from Tylophora ovata as Potent Inhibitors of Inflammation, Spheroid Growth, and Invasion of Triple-Negative Breast Cancer” (International Journal of Molecular Sciences, 2022).
Read-outs that look alike come from different tables or passages of the source.

Assays:
HIF = tested on: HIF; parameters: method as in earlier work; settings: luminal breast cancer cell line T47D; ref 62 (Chen et al.); cited from earlier work
NFκB = NFκB inhibition assay (2 h), NFκB-dependent nanoluc luciferase reporter; assay type: cell-based, human; settings: read-out: NFκB Inhibition 2 h IC50; NFκB-MDA-MB-231-nanoluc cells, 2-h treatment, mean ± SD
Description: Experiments were performed according to the published protocol. On day 1, 4 × 10^4 NFκB-MDA-MB-231-nanoluc cells were seeded into white 96 well plates (Greiner; #655098). On day 2, the medium was replaced with starvation medium and the cells were pre-incubated for 20 min with either 100 µL of DMSO (Roth; #A994.1) alone at a concentration of maximal 0.1% or with the final concentration of the diluted compounds (Table 3). To activate NFκB signaling, cells were stimulated with 1 µg/mL LPS (Sigma-Aldrich; #L2630) beforehand. NFκB-dependent luciferase activity was measured according to the manufacturer`s protocol for the Nano-Glo Luciferase Assay System (Promega, Mannheim, Germany; #N1110). NFκB-dependent luminescence was determined as relative light units (RLU) using the microplate reader Spark® (Tecan, Männedorf, Switzerland).

MDA-MB-231 = test: 2D cell viability (PrestoBlue resazurin) in MDA-MB-231; assay type: cell-based, human; settings: read-out: Reduction of Cell Viability 24 h IC50; MDA-MB-231 2D monolayer, 24 h post-treatment, mean ± SD
Description: Cell viability was determined based on resazurin-reduction in viable cells according to the PrestoBlue^TM Assay. On day 1, MDA-MB-231 (1.5 × 10^4 cells per well or 7.5 × 10^3 cells per well) were seeded into black 96 well plates (Greiner; #655090) in a total volume of 100 µL. On day 2, the compounds or DMSO (Roth; #A994.1) alone at maximal 0.1% were applied (final concentrations after serial dilution shown in Table 3). An amount of 20 µM staurosporine (Sigma-Aldrich; #S5921) served as a positive control. On day 3, the PrestoBlue^TM reagent (Invitrogen^TM, Darmstadt, Germany; #A13262) was applied according to the manufacturer`s instructions. Finally, cell viability-dependent fluorescence was recorded in relative fluorescence units (RFU) with excitation/emission (Exλ/Emλ) at 535/590 nm or 560/590 nm, using the microplate reader Spark® (Tecan).

[1] = tested on: 3D co-culture spheroids of MDA-MB-231 and primary murine CAFs; test: 3D cell viability (ATP content) in TNBC co-culture spheroids; assay type: cell-based, human MDA-MB-231
Description: On day 1, 3000 cells were seeded into a low-attachment 96 well plate (Greiner; #650970). […] Cell viability was determined based on the ATP content in viable cells according to the manufacturer`s instructions (Promega #G9682). Co-culture spheroids were generated for 72 h before they were grown for another 72 h with or without exposure to the compounds. […] Cell viability-dependent luminescence was determined as relative light units (RLU) using the microplate reader Spark® (Tecan).

MDA-MB-468-UnaG = test: Cell cycle studies (PI-DNA flow cytometry) in MDA-MB-468-UnaG; assay type: cell-based; settings: normoxia
Description: To investigate cell cycle progression in the presence of compound (1s) or paclitaxel (Santa Cruz Biotechnology; #sc-201439), we quantified the DNA content in the cell. On day 1, the cells were seeded in 1 mL into a 24 well plate (Greiner; #662160). On day 2, MDA-MB-468-UnaG were pre-treated either without (normoxia) or with 100 µM CoCl2 (hypoxia) (Sigma-Aldrich; #C8661) for 24 h before compounds were applied. On day 2 for MDA-MB-231 or on day 3 for MDA-MB-468-UnaG, paclitaxel was applied at the concentrations 15 nM, 37 nM, and 100 nM, and compound (1s) was applied at concentrations ranging from 2 nM to 1000 nM. Post-treatment cells were washed in 1× PBS (Thermo Fisher Scientific; #14190); fixed in 70% (v/v) ethanol overnight at 4 °C; washed again in 1× PBS; and, finally, DNA was stained for 15 min at 37 °C in the presence of 10 µg/mL propium iodide (PI; Sigma-Aldrich; #4864) and 100 µg/mL RNase A (Thermo Fisher Scientific; #EN0531) dissolved in 0.1% triton™ X-100 (Sigma-Aldrich; #X100), dissolved in PBS. The fluorescence signal resulting from PI-DNA complex formation was recorded using the flow cytometer CytoFlex (Beckmann Coulter, Krefeld, Germany). The cell cycle phase population was determined based on the DNA content in a set of chromosomes (n) in a cell using the integrated software CytExpert (Beckmann Coulter): sub-G0/G1 (<2n), G0/G1 (2n), S (>2n, <4n), G2/M (4n) or hyperploid cells (>4n) (see Figure S10).

[2] = tested on: MDA-MB-231 monoculture spheroids; test: 3D invasion of monoculture spheroids into matrigel; assay type: cell-based, human; settings: 10 nM, 48 h
Description: To study TNBC invasion in an extracellular matrix (ECM)-like environment, mono-culture spheroids of MDA-MB-231 were generated in matrigel®, as described. In brief, 3000 MDA-MB-231 cells were seeded in 0.25% (v/v) matrigel® (Corning, Taufkirchen, Germany; #356432) into a low-attachment 96 well plate (Greiner; #650970 or Cenibra, Bramsche, Germany; #ULA-96U). For cell aggregation, cells were centrifugated for 10 min at 136× g at 4 °C before being grown for 72 h. Invasion was allowed for another […] before analyzing at least three spheroids per treatment group. For that purpose, brightfield images of the spheroids were acquired at 50× g magnification using the microscope Axio Vert.A1 (Zeiss). The spheroid area before treatment and the spheroid area including the invaded area after compound treatment were quantified in brightfield images using Fiji (open-source software; version 1.52i).
Figure 6 Compound (1s) blocks TNBC monoculture spheroid invasion in a matrigel®-based extracellular matrix (ECM). […] (a) Invaded area was measured using Fiji (open-source software; version 1.52i) with manually picked positions (white squares) to determine the outline (yellow line) of the spheroid area within 0 h and after 48-h treatment. […] (c) Invaded area is calculated by normalizing the spheroid area after 48 h treatment to the spheroid size at 0 h. […]

Row | SMILES | HIF induction under low oxygen level (HIF) | IC50 (NFκB) [nM] | IC50 (MDA-MB-231) [nM] | IC50 ([1]; read-out: Reduction of Cell Viability 72 h IC50, 3D co-culture spheroids, 72 h treatment, mean ± SD (n = 3)) [nM] | sub-G0/G1 population (MDA-MB-468-UnaG; 48 h) | cell cycle phase population (MDA-MB-468-UnaG; (1s) 20 nM 72 h, paclitaxel within 24 h) | IC50 ([1]; Mus musculus, MDA-MB-231, 72 h, read-out: Reduction of Cell Viability 72 h IC50, 3D co-culture spheroids, 72 h treatment, mean ± SD (n = 3)) [nM] | blockade of invasion (invaded area) [2]
1 | COc1ccc2c3c(c4cc(OC)c(OC)cc4c2c1)CN1CCCC1C3O (stereo not shown) [Compound (1), O-methyltylophorinidine] | blockade of HIF induction | 17.1 ± 2 | 13.6 ± 0.4 | 21.7 ± 2.5 | – | – | – | –
2 | COc1ccc2c3c(c4cc(OC)c(OC)cc4c2c1)CN1CCCC1C3O (stereo not shown) [Compound (1s), O-methyltylophorinidine] | – | 3.3 ± 0.2 | 4.2 ± 1 | – | increase in the sub-G0/G1 population | significant increase in G2/M population | 11.2 ± 2.1 | approximately 65%
